Measured values taken from US20250206751A1, “HETEROCYCLIC COMPOUND FOR INDUCING DEGRADATION OF G12D MUTANT KRAS PROTEIN” (Astellas Pharma Inc., priority 2022, published 2025).

Key:
[1] = test system: human G12D mutant KRAS-positive pancreatic cancer line AsPC-1; test: Non-anchorage-dependent cell growth inhibition, spheroid 3D cell culture (Test Example 3); type: cell-based; details: Homo sapiens, ASPC1, 144 h, AsPC-1 spheroid 3D culture, 6 days, CellTiter Glo 2.0
Protocol: Test Example 3: Evaluation of Non-Anchorage-Dependent Cell Growth Inhibitory Effect on Human G12D Mutant KRAS-Positive Pancreatic Cancer Line AsPC-1
The non-anchorage-dependent cell growth inhibitory effect of test compounds was evaluated by spheroid 3D cell culture.
AsPC-1 cells were seeded on low-cell-adhesive round bottom 384-well plates (PrimeSurface: from Sumitomo Bakelite) at 36 μL/well to give 5×10^2 cells per well. As for the cell culture conditions, RPMI 1640 medium containing 10% fetal bovine serum was used in the presence of 5% CO2 at 37° C.
The next day, the test compounds (10 or 6 points having final concentrations in the range of 10 μM to 0.3 nM) and DMSO, which was the solvent for the test compounds, as a negative control were diluted 100-fold with a fresh medium and were added at 4 μL per well. After culturing in the presence of 5% CO2 at 37° C. for 6 days, CellTiter Glo 2.0 (from Promega) was added at 20 μL per well. After stirring with a plate mixer (from FINEPCR) at room temperature for 1 hour, the luminescent signals were measured with ARVO X3 (from PerkinElmer).
With the signaling value in treatment with DMSO taken as 100% and with the signaling value in the medium alone without cells taken as 0%, the 50% inhibitory concentration values (IC50) were calculated by Sigmoid-Emax nonlinear regression analysis.

KRAS G12D protein = target: T1, KRAS G12D protein (Homo sapiens, UniProt P01116, G12D); test: KRAS degradation activity by Cell ELISA in AsPC-1 (Test Example 1); type: cell-based; details: AsPC-1 cells, cultured overnight with compound, corrected with β-actin, read-out: DC50 (50% degradation concentration of the amounts of KRAS)
T1 construct: host or cells: AsPC-1
T1 sequence (P01116 1-188 isoform P01116-2 G12D): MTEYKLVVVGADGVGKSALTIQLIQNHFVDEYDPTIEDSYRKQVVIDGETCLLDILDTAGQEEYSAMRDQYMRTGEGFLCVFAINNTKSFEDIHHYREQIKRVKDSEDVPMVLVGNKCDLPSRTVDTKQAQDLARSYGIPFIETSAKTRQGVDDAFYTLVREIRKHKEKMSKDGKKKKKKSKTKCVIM
Protocol: Test Example 1: Evaluation of KRAS Degradation Activity on Human G12D Mutant KRAS-Positive Pancreatic Cancer Line AsPC-1 (CRL-1682; ATCC)
The KRAS degradation activity of test compounds was evaluated by measuring the expression levels of KRAS G12D protein by Cell ELISA.
AsPC-1 cells were seeded at 20 μL per well on 384-well plates (from Greiner bio-one) to give 2.0×10^4 cells per well. As for the cell culture conditions, RPMI 1640 (from Sigma-Aldrich) medium containing 10% fetal bovine serum (from Cytiva) was used in the presence of 5% CO2 at 37° C.
The next day, the test compounds (10 points having final concentrations in the range of 10 μM to 0.3 nM) and DMSO (from FUJIFILM Wako Pure Chemical Corporation), which was the solvent for the test compounds, as a negative control were diluted 500-fold with a fresh medium and were added at 20 μL per well. The cells were cultured overnight.
The next day, the culture supernatant was removed, and 4% paraformaldehyde phosphate buffer (from FUJIFILM Wako Pure Chemical Corporation) was added at 20 μL per well. The plates were allowed to stand for 30 minutes at room temperature to thus immobilize the cells. Then, the supernatant was removed, and 0.1% Triton X-100 (from Amersham Biosciences)-containing Phosphate buffered saline (PBS; from FUJIFILM Wako Pure Chemical Corporation) was added at 20 μL per well. After allowing to stand for 10 minutes at room temperature, the supernatant was removed. PBS was added at 25 μL per well, and the supernatant was removed to thus wash each well. The washing was performed twice in total. Next, the supernatant was removed, and 0.5% sodium dodecyl sulfate (SDS; from Invitrogen)-containing PBS was added at 20 μL per well. After allowing to stand at room temperature for 10 minutes, the supernatant was removed by a centrifugal operation (using a centrifugal dehydrator machine, the supernatant was removed by the same method hereinafter). PBS was added at 25 μL per well, and the supernatant was removed to thus wash each well. The washing was performed twice in total. The supernatant was removed, and blocking solution (Intercept Blocking Buffer; from Li-COR Biosciences) was added at 20 μL per well. After allowing to stand for 30 minutes at room temperature, the supernatant was removed, and a solution obtained by diluting anti-β-actin antibody (Anti-beta Actin antibody [mAbcam 8226]-Loading Control; from abcam) 1,000-fold with blocking solution and a solution obtained by diluting anti-Ras (G12D Mutant Specific) antibody (Ras (G12D Mutant Specific) (D8H7) Rabbit mAb #14429; from Cell Signaling Technology) and anti-β-actin antibody (from abcam) 1,000-fold with blocking solution were respectively added to positive control wells and the other wells at 20 μL per well as a primary antibody. The plate was allowed to stand overnight at 4° C.
The next day, the supernatant was removed. PBS was added at 25 μL per well, and the supernatant was removed to thus wash each well. The washing was performed twice in total. The supernatant was removed, and a solution obtained by diluting Donkey anti-Mouse IgG H&L (IRDye 680RD) (from Li-COR Biosciences) and Goat anti-Rabbit IgG H&L (IRDye 800CW) (from Li-COR Biosciences) 1,000-fold with blocking solution was added at 20 μL per well as a secondary antibody. After allowing to stand for 1 hour at room temperature, the supernatant was removed. PBS was added at 25 μL per well, and the supernatant was removed to thus wash each well. The washing was performed twice in total. After removing the supernatant, the plate was dried with air at room temperature for 2 hours or more, and the 700 nm and 800 nm fluorescent signals were measured with Aerius (from Li-COR Biosciences). […]

[2] = test system: phosphorylation of threonine 202 (Thr202) and tyrosine 204 (Tyr204) of ERK; test: ERK phosphorylation inhibitory effect by Cell ELISA in AsPC-1 (Test Example 2); type: cell-based, human; details: Homo sapiens, ASPC1, AsPC-1 cells, cultured overnight with compound; 1 μM trametinib taken as 0%
Protocol: Test Example 2: Evaluation of ERK Phosphorylation Inhibitory Effect on Human G12D Mutant KRAS-Positive Pancreatic Cancer Line AsPC-1
The ERK phosphorylation inhibitory effect of test compounds was evaluated by measuring phosphorylation of threonine 202 (Thr202) and tyrosine 204 (Tyr204) of ERK located downstream of the KRAS signal by Cell ELISA.
AsPC-1 cells were seeded on 384-well plates at 36 μL/well to give 2.0×10^4 cells per well. As for the cell culture conditions, RPMI 1640 medium containing 10% fetal bovine serum was used in the presence of 5% CO2 at 37° C.
The next day, the test compounds (10 points having final concentrations in the range of 10 μM to 0.3 nM), trametinib (MEK inhibitor) of a final concentration of 1 μM as positive control and DMSO, which was the solvent for the test compounds, as negative control were diluted 100-fold with a fresh medium and were added at 4 μL per well. The cells were cultured overnight. After culturing, 30% glyoxal solution (40% glyoxal [from Nacalai Tesque] was diluted with PBS) was quickly added at 30 μL per well, and the plate was allowed to stand for 60 minutes at room temperature to thus immobilize the cells. Then, the plate was centrifuged to remove the supernatant (using a centrifugal dehydrator machine, the supernatant was removed by the same method hereinafter), and 0.1% Triton X-100-containing PBS was added at 20 μL per well. After allowing to stand for 10 minutes at room temperature, the supernatant was removed, and the same operation was further repeated. Next, 0.5% SDS-containing PBS was added at 20 μL per well, and after allowing to stand at room temperature for 30 minutes, the supernatant was removed. Subsequently, blocking solution (Intercept Blocking Buffer) was added at 20 μL per well, and the plate was allowed to stand for 1 hour at room temperature. The supernatant was removed, and an ERK (Thr202/Tyr204) phosphorylation antibody (Phospho-p44/42 MAPK (Erk 1/2) (Thr202/Tyr204) (D13.14.4E) XP Rabbit mAb; from Cell Signaling Technology) diluted 2,500-fold with blocking solution was added at 15 μL per well as a primary antibody. The plates were allowed to stand at 4° C. overnight.
The next day, the supernatant was removed. 0.05% Tween-20 (from Thermo Fisher Scientific)-containing PBS was added at 50 μL per well, and the supernatant was removed to thus wash each well. The washing was performed three times in total. After washing, Goat anti-Rabbit IgG H&L (IRDye 800CW) diluted 1,000-fold with blocking solution was added at 15 μL per well as a secondary antibody, and the plates were allowed to stand for 1 hour at room temperature. The supernatant was removed, and each well was washed three times with 0.05% Tween-20-containing PBS in the same manner as after the primary antibody reaction. After removing the supernatant, the plates were dried with air at room temperature for 3 hours or more, and the 800-nm fluorescent signals were measured with Aerius.
With the signaling value at the time of addition of DMSO taken as 100% and with the signaling value at the time of addition of 1 μM trametinib taken as 0%, the 50% inhibitory concentration values (IC50) were calculated by Sigmoid-Emax nonlinear regression analysis.

| IC50 [1] | DC50 (KRAS G12D protein) | IC50 [2] | SMILES |
| --- | --- | --- | --- |
| 95 nM | – | – | Cc1ncsc1-c1ccc([C@H](CO)NC(=O)[C@@H]2C[C@@H](O)CN2C(=O)[C@H](C(C)C)n2cc(-c3ccc(COc4c(-c5c(C)c(F)cc6[nH]ncc56)c(C5CC5)nc5c(N6C[C@@H]7C[C@H]6CN7)nc(OC6CCOCC6)nc45)cc3)nn2)cc1 [Example 57, (4R)-1-[(2S)-2-(4-{4-[({6-cyclopropyl-4-[(1S,4S)-2,5-diazabicyclo[2.2.1]heptan-2-yl]-7-(6-fluoro-5-methyl-1H-indazol-4-yl)-2-[(oxan-4-yl)oxy]pyrido[3,2-d]pyrimidin-8-yl}oxy)methyl]phenyl}-1H-1,2,3-triazol-1-yl)-3-methylbutanoyl]-4-hydroxy-N-{(1R)-2-hydroxy-1-[4-(4-methyl-1,3-thiazol-5-yl)phenyl]ethyl}-L-prolinamide] |
| 7 nM | 99 nM | 7 nM | CO[C@@H](C)COc1nc(N(C)[C@H]2CCNC2)c2cc(C3CC3)c(-c3c(C)c(F)cc4[nH]ncc34)c(OCc3ccc(-c4cn([C@H](C(=O)N5C[C@H](O)C[C@H]5C(=O)N[C@@H](CO)c5ccc(N6CCOC6=O)cc5)C(C)C)nn4)cc3)c2n1 (atropisomer, axis not shown) [Example 15] |
| 41 nM | 61 nM | 42 nM | CO[C@@H](C)COc1nc(N(C)[C@H]2CCNC2)c2cc(C3CC3)c(-c3c(C)c(F)cc4[nH]ncc34)c(OCc3ccc(-c4cn([C@H](C(=O)N5C[C@H](O)C[C@H]5C(=O)N[C@@H](CO)c5ccc(F)cc5)C(C)C)nn4)cc3)c2n1 (atropisomer, axis not shown) [Example 12] |
| 5 nM | 59 nM | 5 nM | CO[C@@H](C)COc1cc(O[C@H]2CCNC2)c2cc(C3CC3)c(-c3c(C)c(F)cc4[nH]ncc34)c(OCc3ccc(-c4cn([C@H](C(=O)N5C[C@H](O)C[C@H]5C(=O)N[C@@H](CO)c5ccc(-c6scnc6C)cc5)C(C)C)nn4)cc3)c2n1 [Example 22] |
| 12 nM | 121 nM | 10 nM | Cc1c(F)cc2[nH]ncc2c1-c1c(C2CC2)cc2c(N(C)[C@H]3CCNC3)nc(OC[C@H]3CCCO3)nc2c1OCc1ccc(-c2cn([C@H](C(=O)N3C[C@H](O)C[C@H]3C(=O)N[C@@H](CO)c3ccc(-n4ccnc4C)cc3)C(C)C)nn2)cc1 (atropisomer, axis not shown) [Example 30] |
| 7 nM | 47 nM | 16 nM | Cc1ncsc1-c1ccc([C@H](CO)NC(=O)[C@@H]2C[C@@H](O)CN2C(=O)[C@H](C(C)C)n2cc(-c3ccc(COc4c(-c5c(C)c(F)cc6[nH]ncc56)c(C5CC5)cc5c(N[C@H]6CCNC6)nc(OC6CCOCC6)nc45)cc3)nn2)cc1 (atropisomer, axis not shown) [Example 3] |
| 7 nM | 68 nM | 7 nM | Cc1c(F)cc2[nH]ncc2c1-c1c(C2CC2)cc2c(N(C)[C@H]3CCNC3)cc(OC[C@@H]3CCCO3)nc2c1OCc1ccc(-c2cn([C@H](C(=O)N3C[C@H](O)C[C@H]3C(=O)N[C@@H](CO)c3ccc(-n4ccnc4C)cc3)C(C)C)nn2)cc1 (atropisomer, axis not shown) [Example 27] |
| 5 nM | 47 nM | 5 nM | Cc1ncoc1-c1ccc([C@H](CO)NC(=O)[C@@H]2C[C@@H](O)CN2C(=O)[C@H](C(C)C)n2cc(-c3ccc(COc4c(-c5c(C)c(F)cc6[nH]ncc56)c(C5CC5)cc5c(N(C)[C@H]6CCNC6)nc(OC[C@@H]6CCCO6)nc45)cc3)nn2)cc1 (atropisomer, axis not shown) [Example 28] |
| 18 nM | 59 nM | 20 nM | Cc1ncoc1-c1ccc([C@H](CO)NC(=O)[C@@H]2C[C@@H](O)CN2C(=O)[C@H](C(C)C)n2cc(-c3ccc(COc4c(-c5c(C)c(F)cc6[nH]ncc56)c(C5CC5)cc5c(N(C)[C@H]6CCNC6)nc(OC[C@H]6CCCO6)nc45)cc3)nn2)cc1 (atropisomer, axis not shown) [Example 31] |
| 26 nM | 48 nM | 15 nM | COCCOc1nc(N(C)[C@H]2CCNC2)c2cc(C3CC3)c(-c3c(C)c(F)cc4[nH]ncc34)c(OCc3ccc(-c4cn([C@H](C(=O)N5C[C@H](O)C[C@H]5C(=O)N[C@@H](CO)c5ccc(-c6scnc6C)cc5)C(C)C)nn4)cc3)c2n1 (atropisomer, axis not shown) [Example 24] |
